According to the supplement of paper PMC5412046:
Where a name gives a salt, the structure may show the parent alone.

How the values were obtained:
SB.msgc-1 [1] = test: viability at highest tested concentration (MAXR) relative to DMSO; higher = less cytotoxic; settings: SB.msgc-1 (sporadic gastric cancer)
Outline: (§1)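 Gastric cancer cells derived from hereditary or sporadic patients were treated for 48 h with compound at 11 threefold dilutions, with the top concentration recorded per compound. Viability was then read by CellTiter-Glo luminescence. Data are viability normalised to DMSO, at the highest concentration or as trapezoidal area under the curve.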

SB.mhdgc-1 [2] = test: as above; settings: SB.mhdgc-1 (hereditary c.1380delA CDH1 gastric cancer)
Outline: as §1

SB.msgc-1 [3] = test: area under the dose-response curve of % viability (trapezoidal, 11 doses) (% viability x log10 concentration); higher = less cytotoxic; settings: SB.msgc-1 (sporadic gastric cancer)
Outline: as §1

SB.mhdgc-1 [4] = test: as above; settings: SB.mhdgc-1 (hereditary c.1380delA CDH1 gastric cancer)
Outline: as §1

SMILES | viability (SB.msgc-1 [1]) [%] | viability (SB.mhdgc-1 [2]) [%] | area under the dose-response curve (SB.msgc-1 [3]) | area under the dose-response curve (SB.mhdgc-1 [4])
COC(=O)N1CCN(Cc2cccc(NC(=O)Nc3ccc(C)nc3)c2F)CC1 [Omecamtiv mecarbil] (top concentration 46.0829 µM) | 72.8 | 63.7 | 503 | 397
N[S+]([O-])(=O)C1=C(Cl)C=C2\N=C/N[S+]([O-])(=O)C2=C1 [Chlorothiazide] (top concentration 46.0829 µM) | 106 | 114 | 519 | 512
CCOC(=O)N[C@@H]1CC[C@@H]2[C@@H](C1)C[C@H]1C(=O)O[C@H](C)[C@H]1[C@H]2/C=C/c1ccc(-c2cccc(F)c2)cn1 [Vorapaxar] (top concentration 46.0829 µM) | 73.5 | 53.1 | 575 | 489
C[C@@H]1[C@H]\2[C@H](O)[C@H]3[C@H](N(C)C)\C(=C(C(N)=O)/C(=O)[C@@]3(O)\C(=C2C(=O)C4=C(O)C=CC=C14)O)O [Doxycycline] (top concentration 46.0829 µM) | 59.7 | 84 | 467 | 507
COC1=CC=C(C=N1)C/2=C/C3=C(C)N=C(N)N=C3N(C4CCC(CC4)OCCO)C2=O (configuration not stated) (top concentration 46.0829 µM) | 33.6 | 28.8 | 311 | 238
CC(C)(C)Cn1c(N)nc2ccc(-c3[nH]c(C(C)(C)C)nc3-c3ccc(F)cc3)nc21 (top concentration 46.0829 µM) | 21.3 | 20.3 | 476 | 432
Cc1ccc(F)c(NC(=O)Nc2ccc(-c3cccc4[nH]nc(N)c34)cc2)c1 [Linifanib] (top concentration 46.0829 µM) | 26.4 | 18.9 | 498 | 479
COc1ccc2cccc(CCNC(C)=O)c2c1 [Agomelatine] (top concentration 46.0829 µM) | 92.6 | 88.1 | 531 | 525
Cc1cn[nH]c1 [Fomepizole] (top concentration 46.0829 µM) | 39.8 | 77.3 | 310 | 366
Cc1c(C(=O)Nc2cccc(C(F)(F)F)c2)cc(-c2ccccc2)n1CCCN1CCOCC1 (top concentration 46.0829 µM) | 30.5 | 3.83 | 478 | 516
COC(=O)C1C2CC3c4[nH]c5cc(OC)ccc5c4CCN3CC2CC(OC(=O)c2cc(OC)c(OC)c(OC)c2)C1OC (configuration not stated) [Reserpine] (top concentration 46.0829 µM) | 45.2 | 5.27 | 525 | 418
c1ccc2c(CN3CCNCC3)cccc2c1 [NMP] (top concentration 46.0829 µM) | 89.5 | 7.38 | 491 | 520
CC(=O)Oc1ccccc1C(=O)O [Aspirin] (top concentration 46.0829 µM) | 10.1 | 11.5 | 287 | 541
Nc1nc(N)c2nc(-c3cccc(O)c3)c(-c3cccc(O)c3)nc2n1 (top concentration 46.0829 µM) | 38.3 | 35.2 | 480 | 445
C[C@]\12CCC(=O)\C=C1[C@@H]3C[C@@H]3[C@@H]4[C@@H]2CC[C@@]5(C)[C@H]4[C@@H]6C[C@@H]6[C@@]57CCC(=O)O7 [Drospirenone] (top concentration 46.0829 µM) | 80.6 | 120 | 550 | 524
COc1cc2nc(N3CCCN(C)CC3)nc(NC3CCN(Cc4ccccc4)CC3)c2cc1OC (top concentration 46.0829 µM) | 40.8 | 5.5 | 450 | 420
C[C@@H]1[C@H](O)[C@@H](C)/C=C/C=C/C=C/C=C/C=C/C=C/C=C/[C@H](O[C@@H]2O[C@H](C)[C@@H](O)[C@H](N)[C@@H]2O)C[C@@H]2O[C@](O)(C[C@@H](O)C[C@@H](O)[C@H](O)CC[C@@H](O)C[C@@H](O)CC(=O)O[C@H]1C)C[C@H](O)[C@H]2C(=O)O [Amphotericin B] (top concentration 46.0829 µM) | 55 | 30.6 | 564 | 382
CCNC(=O)C[C@@H]1\N=C(C2=CC=C(Cl)C=C2)/C3=C(C=CC(=C3)OC)[N]4C(=NN=C14)C [I-BET762] (top concentration 46.0829 µM) | 14 | 84.1 | 372 | 478
Oc1ccc([C@@H]2Oc3ccc(O)cc3[C@@H]3CCC[C@@H]32)cc1 [Erteberel] (top concentration 46.0829 µM) | 12.8 | 16.6 | 278 | 492
O=C([O-])C(O)Cc1ccc(O)c(O)c1 (configuration not stated) [Sodium Danshensu] (top concentration 46.0829 µM) | 81.5 | 96.8 | 509 | 573
NC(=O)Nc1cc(-c2ccc(CN3CCOCC3)cc2)sc1C(N)=O [AZ-TAK1 Inhibitor] (top concentration 46.0829 µM) | 36.6 | 29.1 | 504 | 488
N=C(N)NC(=N)NCCc1ccccc1 [Phenformin hydrochloride] (top concentration 46.0829 µM) | 61.7 | 81.1 | 492 | 563
Cc1n[nH]c(C)c1Cc1sc2c(c1C(=O)N1C[C@H](O)CO1)c(=O)n(C)c(=O)n2CC(C)C (top concentration 46.0829 µM) | 118 | 92.3 | 620 | 549
